What was measured:
[1] = tested on: alpha 2 adrenergic receptor; assay: Simultaneous MS binding assay, alpha 2 adrenergic receptor in rat cortex; conditions: multiplexed with prazosine, FIG. 3A
Procedure: (§1) FIG. 3A is a graph showing a simultaneous binding experiment with alpha1 and alpha 2 beta-adrenoceptors. The target molecules are comprised in rat cortex, which contains both alpha 1 and alpha 2 beta adrenoceptors. The test compound is WB4101 and the ligands are prazosine and RX821002.
(§2) This example used target molecule comprising both alpha 1 and alpha 2 beta adeno receptors incubated with WB4101 (test compound) in the presence prazosine (ligand, or “marker” for alpha 1) and RX821002 (ligand, or “marker” for alpha 2) as shown in FIG. 3A. In FIG. 3B, yohimbine (test compound) was tested in the presence of in the presence prazosine (marker for alpha 1) and RX821002 (marker for alpha 2). The signals are indicated ns for non-specific.
(§3) Rat cortexes from Wistar male rats were harvested and transferred to 50 mM Tris-HCl (pH, 7.4) and homogenized by a polyton. […] The pellet was finally resuspended in a smaller volume of lyses buffer and the final protein concentration was determined according to the Bradford method using bovine serum albumin as a standard. […]
(§4) The filters were dried for one hour at 50° C. and cooled to room temperature before elution of ligands using a acetonitrile (contained 100 μM of antipyrine as an internal standard) via a vacuum manifold. Relative quantification of ligand in each sample was performed by UHPLC-MS-MS, the ratio area of ligand and internal standard was used. […]

[2] = tested on: alpha 1 adrenergic receptor; assay: Simultaneous MS binding assay, alpha 1 adrenergic receptor in rat cortex; conditions: multiplexed with RX821002, FIG. 3A
Procedure: as §1, §2, §3, §4

[3] = molecular target: sodium channel (Na+) site 2 receptor; assay: MS binding assay of sodium channel, batrachotoxin as ligand, UHPLC-MS/MS; conditions: rat cortex membrane 200 μg/well, 60 minutes at 37° C.; second value column of Table 4 (SNR 8), taken as MS binding
sodium channels = assay: Radioligand binding assay of sodium (Na) channel; conditions: rat cortex sodium channels; first value column of Table 4 (SNR 6), taken as radioligand binding

Compound: COC1(C2=NCCN2)COc2ccccc2O1 (stereo not shown) [RX821002]
- specific binding to alpha 2 adrenergic receptor [1]: shown specifically to bind

Compound: COc1cc2nc(N3CCN(C(=O)c4ccco4)CC3)nc(N)c2cc1OC [prazosine]
- specific binding to alpha 1 adrenergic receptor [2]: shown specifically to bind

Compound: Batrachotoxin
- EC50 [3]: 143 nM
- Kd (sodium channels): 91 nM
